Laboratory results as given in US9782399B2, “Pharmaceutical compositions which inhibit FKBP52-mediated regulation of androgen receptor function and methods of using same” (The United States of America, as represented by the …, priority 2009, dated 2017).

Experiments:
[1] = tested on: FKBP52-enhanced AR function; test: Yeast AR-mediated β-galactosidase reporter assay, tester strain (AR-P723S + FKBP52); assay type: cell-based; conditions: DHT-induced β-galactosidase reporter
Description: To investigate FTA inhibitory activity, a modified yeast-based assay was created to screen an in-house compound library. The receptor-mediated β-galactosidase assays were initially based on published methods ((Riggs D L, et al., EMBO J., 22:1158-67 (2003); Cox M B, et al., Toxicol. Lett. 129:13-21 (2002) and Balsiger, H. A., and Cox, M. B., in Methods in Molecular Biology: The Nuclear Receptor Superfamily, vol. 505. Edited by I. J. McEwan. The Humana Press, Totowa, N.J. (2008)), however, the assay methods were modified substantially to allow use of a 96-well plate format. All cDNAs for the FKBP proteins were obtained from the laboratory of David Smith at the Mayo Clinic, Arizona. The AR-P723S mutant was originally described previously (Cheung-Flynn, J. et al. (2005)).
All receptors and FKBP proteins were expressed from a set of yeast expression vectors that are commercially available (Mumberg, D., et al., Gene 156: 119-122 (1995)). […]
(§1) The strains were cultivated overnight using a shaking incubator in SC-HUW medium (synthetic complete medium lacking histidine, uracil and tryptophan). […] About one hour later, the plate was read in a luminometer. The measured RLU (relative light units) was normalized to the cell density of the cultures, at the time they were added to the plates, to give a measure of RLU/OD unit. […]

[2] = biological target: T1, wild type human AR (Homo sapiens, UniProt P10275); test: Yeast AR-mediated β-galactosidase reporter assay, control strain (wild type AR alone); assay type: cell-based; conditions: without FKBP52
T1 construct: expressed in transfected cells; host or cells: Saccharomyces cerevisiae W303 (PDR5 deleted)
T1 sequence (P10275 1-920): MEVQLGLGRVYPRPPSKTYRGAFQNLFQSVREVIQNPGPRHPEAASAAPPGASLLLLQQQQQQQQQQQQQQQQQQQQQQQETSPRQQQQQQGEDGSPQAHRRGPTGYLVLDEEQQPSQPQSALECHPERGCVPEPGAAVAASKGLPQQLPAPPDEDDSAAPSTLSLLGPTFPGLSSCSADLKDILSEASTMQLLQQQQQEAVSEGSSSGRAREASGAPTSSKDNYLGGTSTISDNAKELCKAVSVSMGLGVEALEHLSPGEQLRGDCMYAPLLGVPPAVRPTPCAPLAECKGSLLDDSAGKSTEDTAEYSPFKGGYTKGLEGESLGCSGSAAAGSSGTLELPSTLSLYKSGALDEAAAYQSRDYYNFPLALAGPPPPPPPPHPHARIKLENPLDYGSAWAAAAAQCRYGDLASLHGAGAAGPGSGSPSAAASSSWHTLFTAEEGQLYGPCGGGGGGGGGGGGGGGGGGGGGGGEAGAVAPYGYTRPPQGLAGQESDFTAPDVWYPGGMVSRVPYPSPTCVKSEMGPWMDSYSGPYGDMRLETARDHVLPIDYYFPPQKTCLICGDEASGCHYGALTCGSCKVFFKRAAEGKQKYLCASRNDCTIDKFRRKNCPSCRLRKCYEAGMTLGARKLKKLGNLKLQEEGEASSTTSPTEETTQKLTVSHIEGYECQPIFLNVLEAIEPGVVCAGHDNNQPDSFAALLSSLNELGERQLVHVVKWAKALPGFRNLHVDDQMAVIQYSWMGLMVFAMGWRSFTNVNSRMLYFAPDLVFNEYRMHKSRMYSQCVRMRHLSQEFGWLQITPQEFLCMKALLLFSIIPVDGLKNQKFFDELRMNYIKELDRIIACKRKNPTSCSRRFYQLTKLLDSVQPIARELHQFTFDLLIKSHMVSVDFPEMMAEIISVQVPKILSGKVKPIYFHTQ
Description: The yeast host strain used to make these four strains, W303, has his3, trp1 and ura3 mutations, so that growth on media lacking tryptophan, histidine and uracil requires the presence of all three plasmids. The URA3-marked steroid receptor-mediated β-galactosidase reporter plasmid (pUCΔss-26X) was the gift of Dr. Brian Freeman, University of Illinois. The pleiotropic drug resistance 5 (PDR5) gene was deleted in this strain, because PDR5 is an ATP-binding cassette transporter that could potentially transport the test compounds out of the cells, thereby hindering their identification. By deleting PDR5, this potential problem is avoided. […]
as §1
The inventors began testing compounds in the assay by starting with a standard concentration of about 50 μM for all compounds tested. […] The plates are incubated for approximately another 1-3 hours, preferable about 1 hour and 30 minutes, and the light emission is measured on a microplate luminometer (Luminoskan Ascent, Thermo Labsystems). […]

Cc1ccc(NC(=O)c2ccccc2C(=O)O)cc1C [Compound 1]
inhibition of FKBP52-enhanced AR function [1]: inhibits FKBP52-enhanced AR function
effect on AR function alone [2]: does not affect AR function alone
